Assay results published in patent publication US4892865A, “Pyrrolo[2,3-d]pyrimidine nucleosides as antiviral agents” (The Regents of the University of Michigan, priority 1987, dated 1990).
Where two headings read alike, the source gives them in different places.

What was measured:
[1] = system: Human Immunodeficiency Virus Type 1 (HIV-1); experiment: CPE-inhibition assay with HIV-1 in ATH8 cells; assay type: cell-based; details: Human immunodeficiency virus 1, ATH-8, 240 h, read-out: 50% Inhibitory Concentration, Virus Tested: HIV
Experimental: (§1) The human OKT4^+ T-cell clone, ATH8, was obtained from Dr. Samuel Broder's laboratory (NCI) through Dr. Hiroaki Mitsuya. These cells are propagated in RPMI 1640 medium supplemented with 4 mM glutamine, 15% heat-inactivated fetal bovine serum, antibiotics (50 units of penicillin and 50 μg of streptomycin per ml), and 50 units of recombinant-derived human interleukin-2 (ala-125; AMGen Biologicals) per ml. […]
The testing of compounds for antiviral activity employed the modified CPE-inhibition assay described in Mitsuya, H.; Weinhold, K. J.; Furman, P. A.; St. Clair, M. H.; Lehrman, S. N.; Gallo, R. C.; Bolognesi, D.; Barry, D. W.; Broder, S. Proc. Natl. Acad. Sci. USA, (1985) 82, 7096 and Mitsuya, H.; Broder, S. Proc. Natl. Acad. Sci. USA, 1986, 83 1911. […] The protective effect of test compounds was assessed by adding them at varying concentrations to the cultured cells at the time of virus infection, then monitoring the status of the cell pellet.
(§2) ATH8 cells were used as the primary targeted cells in the HIV-induced CPE-inhibition assay. […] These compounds were evaluated at seven half-log dilutions. […] On day 10 post-infection aliquots were taken from individual wells and the total cell number and cell viability (based on trypan-blue dye exclusion) determined. […]

[2] = system: Human Cytomegalovirus (HCMV); experiment: HCMV plaque reduction in HFF cells; assay type: cell-based, HCMV (Towne strain, isolate PO); human foreskin fibroblasts; details: read-out: 50% Inhibitory Concentration, Virus Tested: HCMV
Experimental: (§3) KB cells, an established human cell line derived from an epidermoid oral carcinoma, were routinely grown in minimal essential medium (MEM) with Hanks salts [MEM(H)] supplemented with 5% fetal bovine serum. African green monkey kidney (BSC-1) cells and diploid human foreskin fibroblasts (HFF cells) were grown in MEM with Earle's salts [MEM(E)] supplemented with 10% fetal bovine serum. Cells were passaged according to conventional procedures as described in Shipman, C., Jr.; Smith, S. H.; Carlson, R. H.; Drach, J. C. Antimicrob. Agents Chemother., 1976, 9, 120. The plaque-purified isolate, PO, of the Towne strain of HCMV was used in all experiments and was a gift of Dr. Mark Stinski, University of Iowa. The S-148 strain of HSV-1 was provided by Dr. T. W. Schafer of Schering Corp. Stock preparations of HCMV and HSV-1 were prepared and titered as described in Turk, S. R.; Shipman, C., Jr.; Nassari, R.; Genzlinger, G.; Krawczyk, S. H.; Townsend, L. B.; Drach, J. C. Antimicrob. Agents Chemother., 1987, 31, 544.
(§4) HCMV plaque reduction experiments were performed using monolayer cultures of HFF cells by a procedure similar to that referenced above for titration of HCMV, with the exceptions that the virus inoculum (0.2 ml) contained approximately 50 PFU of HCMV and the compounds to be assayed were dissolved in the overlay medium. HSV-1 plaque reduction experiments were performed using monolayer cultures of BSC-1 cells. The assay was performed exactly as referenced above for HSV-1 titration assays except that the 0.2 ml of virus suspension contained approximately 100 PFU of HSV-1 and the compounds to be tested were dissolved in the overlay medium.
(§5) Dose-response relationships were constructed by linearly regressing the percent inhibition of parameters derived in the preceding sections against log drug concentrations. 50% inhibitory (I50) concentrations were calculated from the regression lines. The three I50 concentrations for inhibition of DNA, RNA and protein synthesis were averaged to give the values reported in Table I for KB cell cytotoxicity. Samples containing positive controls (acyclovir, ganciclovir, or vidarabine) were used in all assays. Results from sets of assays were rejected if inhibition by the positive control deviated from its mean response by more than 1.5 standard deviations.

[3] = system: Herpes Virus Type 1 (HSV-1); experiment: HSV-1 plaque reduction in BSC-1 cells; assay type: cell-based; details: read-out: 50% Inhibitory Concentration, Virus Tested: HSV-1
Experimental: as §3, §4, §5
^a In experiments with HSV1 both the HF and 148 strains were used.

[4] = Cytotoxicity in ATH8 cells (total cell number and viability, trypan-blue dye exclusion); assay type: cell-based; details: human; uninfected ATH8 cells; read-out: 50% Inhibitory Concentration, Cytotoxicity: ATH8
Experimental: as §1, with “ml. The clone H9 cell lines, an OKT4^+ human T-cell line which is permissive for HIV replication but largely resistant to virus-induced CPE, H9 cells productively infected with the HTLV-IIIB strain of HIV, and H9 cells productively infected with the RF-II Haitian variant of HIV have been obtained from Dr. Robert Gallo's laboratory (NCI) through Dr. Howard Streicher.” for “ml.”
as §2
Dose-response relationships were constructed by linearly regressing the percent inhibition of parameters derived in the preceding sections against log drug concentrations. 50% inhibitory (I50) concentrations were calculated from the regression lines. […]

[5] = Visual cytotoxicity in uninfected HFF cells; assay type: cell-based; details: human; visual cytotoxicity scored on uninfected HFF cells at time of HCMV plaque determination; read-out: 50% Inhibitory Concentration, Cytotoxicity: HFF
Experimental: as §3
(§6) Two basic tests for cellular cytotoxicity were routinely employed for compounds examined in antiviral assays. Cytotoxicity produced in HFF and BSC-1 cells was estimated by visual scoring of cells not affected by virus infection in the plaque reduction assays described above. Cytopathology was estimated at 35- and 60-fold magnification and scored on a zero to four plus basis on the day of staining for plaque enumeration. Cytotoxicity in KB cells was determined by measuring the effects of compounds on the incorporation of radioactive precursors into DNA, RNA and protein as described in Turk, S. R.; Shipman, C., Jr.; Nassari, R.; Genzlinger, G.; Krawczyk, S. H.; Townsend, L. B.; Drach, J. C. Antimicrob. Agents Chemother., 1987, 31, 544.
as §5
(§7) ^b Visual cytotoxicity scored on uninfected HFF or BSC cells at time
(§8) of HCMV or HSV1 plaque determination.

[6] = Visual cytotoxicity in uninfected BSC-1 cells; assay type: cell-based; details: african green monkey, visual cytotoxicity scored on uninfected BSC cells at time of HSV1 plaque determination, read-out: 50% Inhibitory Concentration, Cytotoxicity: BSC
Experimental: as §3, §6, §5, §7, §8

[7] = Cytotoxicity in KB cells (inhibition of DNA, RNA and protein synthesis); assay type: cell-based; details: human, average of inhibition of DNA, read-out: 50% Inhibitory Concentration, Cytotoxicity: KB
Experimental: as §3, §6, §5
^c Average percent inhibition of DNA, RNA and protein synthesis
determined in KB cells as described in the text.

[8] = Human alphaherpesvirus 1, BSC-1, in Chlorocebus sabaeus
[9] = Human betaherpesvirus 5, plaque reduction, HFF cells
[10] = Human alphaherpesvirus 1, in Chlorocebus sabaeus, plaque reduction, BSC-1 cells, both the HF and 148 strains were used

`NC(=O)c1cn([C@H]2CC[C@@H](CO)O2)c2ncnc(N)c12` [Dideosysangivamycin, 4-amino-7-(2',3'-dideoxy-β-D-ribofuranosyl)pyrrolo[2,3-d]-pyrimidine-5-carboxamide] showed an IC50 [1] of 3 µM, an IC50 ([2]; Human betaherpesvirus 5, HFF) greater than 100 µM and an IC50 [3, 8] greater than 100 µM. It also gave a CC50 [4] of 100 µM, a CC50 [5] greater than 100 µM and a CC50 [6] greater than 100 µM. For the same compound, the CC50 [7] was greater than 100 µM.

`NC(=O)c1cn([C@H]2C=C[C@@H](CO)O2)c2ncnc(N)c12` [Dideoxydidehydrosangivamycin, 4-amino-7-(2',3'-dideoxy-2',3'-didehydro-β-D-ribofuranosyl)-pyrrolo-[2,3-d]pyrimidine-5-carboxamide] gave an IC50 ([2]; Human betaherpesvirus 5, HFF) greater than 100 µM, an IC50 [3, 8] greater than 100 µM and a CC50 [5] greater than 100 µM. For the same compound, the CC50 [6] was greater than 100 µM and the CC50 [7] was 54 µM.

In the case of `N#Cc1cn([C@H]2C=C[C@@H](CO)O2)c2ncnc(N)c12` [Dideoxydidehydrotoyocamycin, 4-amino-5-cyano-7-(2',3'-dideoxy-2',3'-didehydro-β-D-glycero-pentofuranosyl)-pyrrolo[2,3-d]pyrimidine], the IC50 [2, 9] is reported as 5.1 µM, the IC50 [3, 10] is reported as 41 µM and the CC50 [5] is reported as greater than 100 µM. It also gave a CC50 [6] greater than 100 µM and a CC50 [7] greater than 100 µM.

Compound `Nc1ncnc2c1ccn2[C@H]1C=C[C@@H](CO)O1` [Dideoxydidehydrotubercidin, 4-amino-7(2',3'-dideoxy-2',3'-didehydro-β-ribofuranosyl)-pyrrolo[2,3-d] pyrimidine] has an IC50 [2, 9] greater than 100 µM, an IC50 [3, 10] greater than 100 µM and a CC50 [5] greater than 100 µM. It also gave a CC50 [6] greater than 100 µM.

`N#Cc1cn([C@H]2CC[C@@H](CO)O2)c2ncnc(N)c12` [Dideoxytoyocamycin, 4-amino-5-cyano-7-(2',3'-dideoxy-β-D-ribofuranosyl)-pyrrolo-[2,3-d]-pyrimidine] gave an IC50 ([1]; ATH8 cells, day 10 post-infection) of 3 µM, an IC50 [2, 9] of 18 µM and an IC50 [3, 10] of 21 µM. It also gave a CC50 [4] of 100 µM, a CC50 [5] greater than 100 µM and a CC50 [6] greater than 100 µM. For the same compound, the CC50 [7] was 54 µM.

Work on `Nc1ncnc2c1ccn2[C@H]1CC[C@@H](CO)O1` [Dideoxytubercidin, 4-amino-7-(2',3'-dideoxy-β-D-ribofuranosyl)pyrrolo[2,3-d]-pyrimidine] yielded an IC50 [2, 9] greater than 100 µM, an IC50 [3, 10] greater than 100 µM and a CC50 [5] greater than 100 µM. It also gave a CC50 [6] greater than 100 µM.
